Data published in PubChem BioAssay (NCI).
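Tested at 5 concentrations; 48 h exposure; 96-well plates; endpoints linearly interpolated, else capped at highest concentration. GI50 marks 50% less growth. The concentration for full growth arrest is given as TGI.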

Columns and labels:
Assay in all cases: NCI-60 cell line screen, 48 h; in the data active = GI50 below about 0.43 µM; inactive = the rest
UO-31 renal = system: UO-31 renal
SF-539 CNS = system: SF-539 CNS
SN12C renal = system: SN12C renal
NCI-H460 lung = system: NCI-H460 lung
U251 CNS = system: U251 CNS
LOX IMVI melanoma = system: LOX IMVI melanoma
SK-MEL-5 melanoma = system: SK-MEL-5 melanoma
HCC-2998 colon = system: HCC-2998 colon
HOP-92 NSCLC = system: HOP-92 NSCLC
HCT-15 colon = system: HCT-15 colon

O=C(NN1C(=O)CSC12CCCC2)c1[nH]c2ccc(Br)cc2c1-c1ccccc1
> 100 µM: TGI (UO-31 renal) | TGI (SF-539 CNS) | TGI (NCI-H460 lung) | TGI (U251 CNS) | TGI (LOX IMVI melanoma) | TGI (SK-MEL-5 melanoma) | TGI (HCC-2998 colon) | TGI (HOP-92 NSCLC) | TGI (HCT-15 colon)
77 µM: TGI (SN12C renal)
inactive: GI50 (UO-31 renal) 59.1 µM | GI50 (SF-539 CNS) > 100 µM | GI50 (SN12C renal) 25.9 µM | GI50 (NCI-H460 lung) 46.9 µM | GI50 (U251 CNS) 38.2 µM | GI50 (LOX IMVI melanoma) 45.5 µM | GI50 (SK-MEL-5 melanoma) 63.9 µM | GI50 (HCC-2998 colon) 44.6 µM | GI50 (HOP-92 NSCLC) 33.8 µM | GI50 (HCT-15 colon) 43.2 µM

O=c1nc2oc3ccc4ccccc4c3cc-2s1
> 57.8 µM: TGI (HOP-92 NSCLC)
inactive: GI50 (UO-31 renal) 33.7 µM | GI50 (SF-539 CNS) 1.58 µM | GI50 (SN12C renal) 20.4 µM | GI50 (NCI-H460 lung) 4.93 µM | GI50 (U251 CNS) 4.4 µM | GI50 (LOX IMVI melanoma) 4.09 µM | GI50 (SK-MEL-5 melanoma) 2.44 µM | GI50 (HCC-2998 colon) > 100 µM | GI50 (HOP-92 NSCLC) 1.62 µM | GI50 (HCT-15 colon) > 45.7 µM
> 100 µM: TGI (UO-31 renal) | TGI (SF-539 CNS) | TGI (SN12C renal) | TGI (NCI-H460 lung) | TGI (U251 CNS) | TGI (LOX IMVI melanoma) | TGI (SK-MEL-5 melanoma) | TGI (HCC-2998 colon) | TGI (HCT-15 colon)

COC(=O)C1=C(c2cc(OC)c(OC)c(OC)c2)OC(c2ccc(OC)c(OC)c2)C1 (stereo not given)
93.7 µM: TGI (SK-MEL-5 melanoma)
> 100 µM: TGI (UO-31 renal) | TGI (SF-539 CNS) | TGI (SN12C renal) | TGI (NCI-H460 lung) | TGI (U251 CNS) | TGI (LOX IMVI melanoma) | TGI (HCC-2998 colon) | TGI (HOP-92 NSCLC) | TGI (HCT-15 colon)

CCCCN(CCCC)c1ccc(C(=N)c2ccc(N(CCCC)CCCC)cc2)cc1
1.62 µM: TGI (HCT-15 colon)
1.44 µM: TGI (SN12C renal)
1.19 µM: TGI (LOX IMVI melanoma)
1.46 µM: TGI (HOP-92 NSCLC)
2.13 µM: TGI (NCI-H460 lung)
1.38 µM: TGI (UO-31 renal)
1.61 µM: TGI (SK-MEL-5 melanoma)
2.95 µM: TGI (SF-539 CNS)
active: GI50 (UO-31 renal) 0.32 µM | GI50 (SN12C renal) 0.35 µM | GI50 (U251 CNS) 0.351 µM | GI50 (LOX IMVI melanoma) 0.313 µM | GI50 (HOP-92 NSCLC) 0.235 µM | GI50 (HCT-15 colon) 0.418 µM
1.65 µM: TGI (HCC-2998 colon)
1.28 µM: TGI (U251 CNS)
inactive: GI50 (SF-539 CNS) 1.49 µM | GI50 (NCI-H460 lung) 0.773 µM | GI50 (SK-MEL-5 melanoma) 0.547 µM | GI50 (HCC-2998 colon) 0.442 µM

COc1cc(C2C(Cl)C(=O)N2NC(=O)c2ccc(N)cc2)ccc1O (stereo not given)
38 µM: TGI (HCC-2998 colon)
32 µM: TGI (U251 CNS)
62.1 µM: TGI (SF-539 CNS)
32.1 µM: TGI (LOX IMVI melanoma)
> 100 µM: TGI (UO-31 renal) | TGI (SN12C renal) | TGI (NCI-H460 lung) | TGI (SK-MEL-5 melanoma) | TGI (HCT-15 colon)
52.8 µM: TGI (HOP-92 NSCLC)

COc1ccc2c(c1)C(=O)c1c-2c(N(C)C)nc2ccccc12
> 100 µM: TGI (UO-31 renal) | TGI (SF-539 CNS) | TGI (SN12C renal) | TGI (NCI-H460 lung) | TGI (U251 CNS) | TGI (LOX IMVI melanoma) | TGI (SK-MEL-5 melanoma) | TGI (HCC-2998 colon) | TGI (HOP-92 NSCLC) | TGI (HCT-15 colon)
inactive: GI50 (UO-31 renal) > 100 µM | GI50 (SF-539 CNS) > 100 µM | GI50 (SN12C renal) 95.3 µM | GI50 (NCI-H460 lung) > 100 µM | GI50 (U251 CNS) > 100 µM | GI50 (LOX IMVI melanoma) > 100 µM | GI50 (SK-MEL-5 melanoma) > 100 µM | GI50 (HCC-2998 colon) > 100 µM | GI50 (HOP-92 NSCLC) 72.6 µM | GI50 (HCT-15 colon) > 100 µM

Cc1ccc(C)c(NC(=O)CC/C(=N\NC(=O)c2c(O)ccc3ccccc23)C(C)C(=O)c2ccc(O)cc2)c1 (stereo not given)
39.6 µM: TGI (LOX IMVI melanoma)
> 100 µM: TGI (UO-31 renal) | TGI (SN12C renal) | TGI (NCI-H460 lung) | TGI (U251 CNS) | TGI (SK-MEL-5 melanoma) | TGI (HCC-2998 colon) | TGI (HOP-92 NSCLC) | TGI (HCT-15 colon)
80.5 µM: TGI (SF-539 CNS)
